Test results: ChEMBL document CHEMBL1201862, “PubChem BioAssay data set” (2004)
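Values below derive from 48-hour exposures of cells grown in 96-well plates, with endpoints linearly interpolated between the two concentrations bracketing the appropriate inhibition level. At the GI50, growth is halved.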 Active and inactive are the calls of the source. No stated cut-off is given here; in the data, active = GI50 up to about 1.1 µM and inactive = higher.

Tests used:
Experiment in all cases: DTP human tumour cell line panel, 48 h
[1] = system: NCI-H522
[2] = system: UACC-62
[3] = system: K562
[4] = system: MDA-MB-435
[5] = system: HCT-116
[6] = system: MCF7
[7] = system: HOP-62
[8] = system: HT-29
[9] = system: EKVX
[10] = system: SF-539
[11] = system: HCT-15
[12] = system: RXF 393
[13] = system: HL-60
[14] = system: M14
[15] = system: Hs-578T
[16] = system: MOLT-4
[17] = system: CCRF-CEM
[18] = system: UACC-257
[19] = system: SW-620
[20] = system: NCI/ADR-RES
[21] = system: LOX IMVI
[22] = system: SN12C
[23] = system: OVCAR-5
[24] = system: SF-295
[25] = system: MDA-MB-231
[26] = system: DU-145
[27] = system: UO-31
[28] = system: NCI-H226
[29] = system: HOP-92
[30] = system: OVCAR-3
[31] = system: MDA-N
[32] = system: TK-10
[33] = system: KM12
[34] = system: 786-0
[35] = system: ACHN
[36] = system: Malme-3M
[37] = system: SK-MEL-2
[38] = system: SF-268
[39] = system: OVCAR-8
[40] = system: NCI-H23
[41] = system: A549
[42] = system: BT-549
[43] = system: T47D
[44] = system: SNB-19
[45] = system: SK-MEL-5
[46] = system: IGROV-1
[47] = system: OVCAR-4
[48] = system: U-251
[49] = system: SK-MEL-28
[50] = system: COLO 205
[51] = system: RPMI-8226
[52] = system: CAKI-1
[53] = system: PC-3
[54] = system: A498
[55] = system: SK-OV-3
[56] = system: NCI-H460
[57] = system: SNB-75
[58] = system: HCC 2998

Measured: GI50

C1CN(c2nc3c(nnc4nc(N5CCOCC5)sc43)s2)CCO1
> 100 µM: [11]
inactive: [1] 45.3 µM | [2] > 100 µM | [3] > 100 µM | [4] > 100 µM | [5] > 100 µM | [6] 73.3 µM | [7] > 100 µM | [8] > 100 µM | [9] > 100 µM | [10] > 100 µM | [12] > 100 µM | [13] > 100 µM | [14] > 100 µM | [15] 53.6 µM | [16] 58.7 µM | [17] 52.8 µM | [18] > 100 µM | [19] > 100 µM | [20] > 100 µM | [21] > 100 µM | [22] 96.6 µM | [23] > 100 µM | [24] > 100 µM | [25] > 100 µM | [26] > 100 µM | [27] > 100 µM | [28] 84.7 µM | [29] 29.4 µM | [30] 78.3 µM | [31] > 100 µM | [32] > 100 µM | [33] > 100 µM | [34] > 100 µM | [35] > 100 µM | [36] 37.2 µM | [37] > 100 µM | [38] 49.7 µM | [39] > 100 µM | [40] > 100 µM | [41] > 100 µM | [42] > 100 µM | [43] 23.7 µM | [44] 89.1 µM | [45] > 100 µM | [46] > 100 µM | [47] > 100 µM | [48] 60.8 µM | [49] > 100 µM | [50] > 100 µM | [51] > 100 µM | [52] > 100 µM | [53] > 100 µM | [54] > 100 µM

CCOC(=O)C(=[N+]=[N-])C(=O)CSC#N
inactive: [1] 24.4 µM | [2] 69.5 µM | [4] 22.6 µM | [5] 33 µM | [6] 38.4 µM | [7] > 100 µM | [8] 39.3 µM | [9] > 100 µM | [10] 21.3 µM | [12] > 100 µM | [13] 39.3 µM | [14] 23.8 µM | [15] > 100 µM | [55] > 100 µM | [16] 39.2 µM | [17] 35.1 µM | [18] 71.4 µM | [19] 57.3 µM | [20] 96.4 µM | [21] 21.7 µM | [22] 25.6 µM | [23] > 100 µM | [24] > 100 µM | [25] 82.2 µM | [26] > 100 µM | [27] 31.2 µM | [28] 40.6 µM | [31] 36 µM | [32] 94.8 µM | [33] > 100 µM | [34] > 100 µM | [35] 22.3 µM | [36] 55 µM | [37] > 100 µM | [38] > 100 µM | [39] 46 µM | [40] 84.7 µM | [41] 97.7 µM | [42] 86.9 µM | [43] > 100 µM | [44] 97.5 µM | [45] 35.5 µM | [46] > 100 µM | [47] 40.6 µM | [48] 46.5 µM | [49] > 100 µM | [50] > 100 µM | [52] 32.7 µM | [53] > 100 µM | [54] > 100 µM
51.4 µM: [11]

O=C1C=CC[C@H](/C=C/C[C@@H](O)C[C@H](O)/C=C/c2ccccc2)O1
10.5 µM: [11]
inactive: [1] 4.25 µM | [2] 15 µM | [3] 10.9 µM | [4] 11.3 µM | [5] 5.09 µM | [6] 12.4 µM | [7] 16.5 µM | [8] 11.4 µM | [9] 12 µM | [10] 9.89 µM | [12] 6.89 µM | [13] 3.56 µM | [14] 14.4 µM | [56] 15.3 µM | [15] 19.3 µM | [55] 15 µM | [16] 14 µM | [17] 3.74 µM | [18] 13.9 µM | [19] 13.5 µM | [20] 19.1 µM | [21] 2.92 µM | [22] 13.8 µM | [23] 15.1 µM | [24] 15.7 µM | [25] 10.5 µM | [26] 13.3 µM | [27] 13.2 µM | [28] 12.8 µM | [29] 2.56 µM | [57] 13.6 µM | [30] 11.5 µM | [31] 12.4 µM | [32] 11.7 µM | [33] 12.3 µM | [34] 16.1 µM | [35] 14.6 µM | [36] 14.9 µM | [37] 12.3 µM | [38] 21.8 µM | [39] 14.4 µM | [40] 11.3 µM | [41] 15.8 µM | [42] 10.8 µM | [43] 14.3 µM | [44] 19.2 µM | [45] 13.7 µM | [46] 13.6 µM | [47] 14.6 µM | [48] 11.9 µM | [58] 2.28 µM | [49] 16.7 µM | [50] 7.87 µM | [52] 6.4 µM | [53] 14.5 µM | [54] 14.1 µM
